Data from US8952034B2, “Fused heterocyclic compounds as ion channel modulators” (Gilead Sciences, Inc., priority 2009, dated 2015).

Biological target: wild-type human cardiac sodium channel, hNav1.5 (Homo sapiens, UniProt Q14524)
Assay: Late INa screening assay (automated whole cell patch clamp, PatchXpress)
Format: cell-based
Conditions: for inhibition at 1 µM: compound at 1 μM, HEK293 cells expressing hNav1.5, late INa generated with 10 μM Tefluthrin (or 50 nM ATX II), read-out: LateINa_1 uM (percent block of late INa)
Procedure, shortened: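 Late sodium current through wild-type human hNav1.5 stably expressed in HEK293 cells (no beta subunits) was recorded by automated whole-cell patch clamp on a PatchXpress 7000A at 24-27° C. Late INa was induced with 10 μM Tefluthrin or 50 nM ATX II. Cells were stepped from −120 mV to −20 mV for 250 ms at 0.1 Hz, and percent block was normalized to current in Na-free extracellular solution.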

Chain of wild-type human cardiac sodium channel, hNav1.5 (Q14524 whole entry): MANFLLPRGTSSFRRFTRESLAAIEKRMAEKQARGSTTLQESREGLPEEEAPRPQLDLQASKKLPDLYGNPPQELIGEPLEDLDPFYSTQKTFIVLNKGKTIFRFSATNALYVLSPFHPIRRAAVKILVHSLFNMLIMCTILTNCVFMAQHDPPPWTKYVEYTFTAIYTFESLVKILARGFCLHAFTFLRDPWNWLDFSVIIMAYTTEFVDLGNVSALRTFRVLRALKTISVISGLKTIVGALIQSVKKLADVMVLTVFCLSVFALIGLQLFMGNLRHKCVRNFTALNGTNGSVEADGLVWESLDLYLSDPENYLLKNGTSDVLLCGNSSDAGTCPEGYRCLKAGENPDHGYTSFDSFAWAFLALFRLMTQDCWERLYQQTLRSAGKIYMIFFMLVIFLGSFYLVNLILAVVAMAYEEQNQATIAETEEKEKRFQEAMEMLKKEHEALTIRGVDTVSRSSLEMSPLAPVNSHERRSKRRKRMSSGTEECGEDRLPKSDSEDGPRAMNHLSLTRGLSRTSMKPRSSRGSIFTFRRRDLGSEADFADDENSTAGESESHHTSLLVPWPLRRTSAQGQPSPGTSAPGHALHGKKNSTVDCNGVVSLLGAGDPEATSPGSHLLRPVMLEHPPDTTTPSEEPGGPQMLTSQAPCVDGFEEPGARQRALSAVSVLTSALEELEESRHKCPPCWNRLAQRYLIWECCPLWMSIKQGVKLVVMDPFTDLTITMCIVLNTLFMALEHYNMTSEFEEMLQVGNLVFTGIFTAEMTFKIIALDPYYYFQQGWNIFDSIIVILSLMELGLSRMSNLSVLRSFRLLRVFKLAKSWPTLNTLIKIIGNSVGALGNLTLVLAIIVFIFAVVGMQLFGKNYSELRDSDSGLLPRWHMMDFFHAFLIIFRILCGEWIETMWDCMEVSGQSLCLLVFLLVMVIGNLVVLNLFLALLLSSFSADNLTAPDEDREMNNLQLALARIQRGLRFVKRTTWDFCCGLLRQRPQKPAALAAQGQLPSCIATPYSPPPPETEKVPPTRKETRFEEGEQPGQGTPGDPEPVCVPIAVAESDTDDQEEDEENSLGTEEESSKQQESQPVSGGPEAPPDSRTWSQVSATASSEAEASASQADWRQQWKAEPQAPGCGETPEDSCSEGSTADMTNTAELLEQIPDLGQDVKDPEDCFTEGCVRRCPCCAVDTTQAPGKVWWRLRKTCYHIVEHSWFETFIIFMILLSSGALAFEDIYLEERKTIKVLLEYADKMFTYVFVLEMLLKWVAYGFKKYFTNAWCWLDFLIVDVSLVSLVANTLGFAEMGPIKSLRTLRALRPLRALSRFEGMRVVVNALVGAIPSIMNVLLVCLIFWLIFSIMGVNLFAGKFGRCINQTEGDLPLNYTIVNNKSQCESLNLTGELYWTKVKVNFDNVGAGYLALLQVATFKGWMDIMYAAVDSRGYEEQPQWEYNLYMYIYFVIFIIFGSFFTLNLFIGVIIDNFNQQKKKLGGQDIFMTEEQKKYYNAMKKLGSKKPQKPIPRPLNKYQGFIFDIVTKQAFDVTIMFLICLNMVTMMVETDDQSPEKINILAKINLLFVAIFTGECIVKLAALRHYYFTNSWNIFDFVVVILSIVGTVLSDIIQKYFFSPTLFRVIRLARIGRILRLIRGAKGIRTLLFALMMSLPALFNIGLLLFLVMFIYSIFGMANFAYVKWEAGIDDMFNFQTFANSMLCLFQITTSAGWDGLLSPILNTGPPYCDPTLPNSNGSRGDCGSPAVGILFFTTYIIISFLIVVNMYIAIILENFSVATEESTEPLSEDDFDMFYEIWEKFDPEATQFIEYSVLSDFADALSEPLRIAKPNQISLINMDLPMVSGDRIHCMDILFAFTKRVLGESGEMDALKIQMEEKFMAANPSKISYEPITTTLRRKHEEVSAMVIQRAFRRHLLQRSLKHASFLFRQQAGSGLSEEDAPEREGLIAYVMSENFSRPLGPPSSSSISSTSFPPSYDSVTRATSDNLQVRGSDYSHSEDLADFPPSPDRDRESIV

| Structure (SMILES) | inhibition at 1 µM [%] | LateINa_1 uM (percent block of late INa) [%] |
| --- | --- | --- |
| Cc1oc(-c2ccccc2)nc1COC(F)(F)c1nnc2ccc(-c3ccc(OC(F)(F)F)cc3)cn12 [BHN-229, 3-{difluoro[(5-methyl-2-phenyl-1,3-oxazol-4-yl)methoxy]methyl}-6-[4-(trifluoromethoxy)phenyl][1,2,4]triazolo[4,3-a]pyridine] | 72.2 | – |
| CC(OC(F)(F)c1nnc2ccc(-c3ccc(OC(F)(F)F)cc3)cn12)c1ccccn1 (centres unmarked) [BHN-230, 3-{difluoro[1-(pyridin-2-yl)ethoxy]methyl}-6-[4-(trifluoromethoxy)phenyl][1,2,4]triazolo[4,3-a]pyridine] | 42.3 | – |
| CC(OC(F)(F)c1nnc2ccc(-c3ccc(OC(F)(F)F)cc3)cn12)c1ccc(Cl)cc1 (centres unmarked) [BHN-231, 3-{[1-(4-chlorophenyl)ethoxy](difluoro)methyl}-6-[4-(trifluoromethoxy)phenyl][1,2,4]triazolo[4,3-a]pyridine] | 62.9 | – |
| COCC(F)(F)c1nnc2ccc(-c3ccc(OC(F)(F)F)c(F)c3)cn12 [BHN-232, 3-(1,1-difluoro-2-methoxyethyl)-6-[3-fluoro-4-(trifluoromethoxy)phenyl][1,2,4]triazolo[4,3-a]pyridine] | 45.3 | – |
| COCC(F)(F)c1nnc2ccc(-c3cc(F)c(Oc4ccccc4)c(F)c3)cn12 [BHN-233, 3-(1,1-difluoro-2-methoxyethyl)-6-(3,5-difluoro-4-phenoxyphenyl)[1,2,4]triazolo[4,3-a]pyridine] | 31.4 | – |
| COCC(F)(F)c1nnc2ccc(C#Cc3ccc(C(F)(F)F)cc3)cn12 [BHN-234, 3-(1,1-difluoro-2-methoxyethyl)-6-{[4-(trifluoromethyl)phenyl]ethynyl}[1,2,4]triazolo[4,3-a]pyridine] | 57.8 | – |
| FC(F)(F)Oc1ccc(-c2ccc3nnc(C(F)(F)COCc4cc(-c5ccc(Cl)cc5)no4)n3c2)cc1 [BHN-235, 3-(2-{[3-(4-chlorophenyl)-1,2-oxazol-5-yl]methoxy}-1,1-difluoroethyl)-6-[4-(trifluoromethoxy)phenyl][1,2,4]triazolo[4,3-a]pyridine] | 41.5 | – |
| FC(F)(F)c1nnc2ccc(-c3ccc(Oc4ccc(Cl)cc4)cc3)nn12 [BHN-236, 6-[4-(4-chlorophenoxy)phenyl]-3-(trifluoromethyl)[1,2,4]triazolo[4,3-b]pyridazine] | 40 | – |
| FC(F)c1nnc2ccc(-c3ccc(OCC(F)(F)F)nc3)nn12 [BHN-237, 3-(difluoromethyl)-6-[6-(2,2,2-trifluoroethoxy)pyridin-3-yl][1,2,4]triazolo[4,3-b]pyridazine] | 44.7 | – |
| Fc1ccccc1COCc1nnc2ccc(-c3ccc(OC(F)(F)F)cc3)cn12 [BHN-238, 3-{[(2-fluorobenzyl)oxy]methyl}-6-[4-(trifluoromethoxy)phenyl][1,2,4]triazolo[4,3-a]pyridine] | 80.6 | – |
| FC(F)(F)Oc1ccc(-c2ccc3nnc(COCc4ccccc4C(F)(F)F)n3c2)cc1 [BHN-239, 6-[4-(trifluoromethoxy)phenyl]-3-({[2-(trifluoromethyl)benzyl]oxy}methyl)[1,2,4]triazolo[4,3-a]pyridine] | 65.1 | – |
| Fc1ccc(COCc2nnc3ccc(-c4ccc(OC(F)(F)F)cc4)cn23)c(F)c1 [BHN-240, 3-{[(2,4-difluorobenzyl)oxy]methyl}-6-[4-(trifluoromethoxy)phenyl][1,2,4]triazolo[4,3-a]pyridine] | 83.4 | – |
| FC(F)(F)Oc1ccc(-c2ccc3nnc(COCc4ccc(Cl)cc4)n3c2)cc1 [BHN-241, 3-{[(4-chlorobenzyl)oxy]methyl}-6-[4-(trifluoromethoxy)phenyl][1,2,4]triazolo[4,3-a]pyridine] | 82.2 | – |
| FC(F)(F)Oc1ccc(COCc2nnc3ccc(-c4ccc(OC(F)(F)F)cc4)cn23)cc1 [BHN-242, 3-({[4-(trifluoromethoxy)benzyl]oxy}methyl)-6-[4-(trifluoromethoxy)phenyl][1,2,4]triazolo[4,3-a]pyridine] | 72.2 | – |
| O=C(NCC(F)(F)c1nnc2ccc(-c3ccc(OC(F)(F)F)cc3)cn12)c1ccccc1 [BHN-243, N-(2,2-difluoro-2-{6-[4-(trifluoromethoxy)phenyl][1,2,4]triazolo[4,3-a]pyridin-3-yl}ethyl)benzamide] | 21 | – |
| FC(F)(F)Oc1ccc(-c2ccc3nnc(COCc4ccccn4)n3c2)cc1 [BHN-244, 3-[(pyridin-2-ylmethoxy)methyl]-6-[4-(trifluoromethoxy)phenyl][1,2,4]triazolo[4,3-a]pyridine] | 17.5 | – |
| FC(F)(F)Oc1ccc(-c2ccc3nnc(C(F)(F)OCc4ncccn4)n3c2)cc1 [BHN-245, 3-[difluoro(pyrimidin-2-ylmethoxy)methyl]-6-[4-(trifluoromethoxy)phenyl][1,2,4]triazolo[4,3-a]pyridine] | 38.8 | – |
| CC(OCc1nnc2ccc(-c3ccc(OC(F)(F)F)cc3)cn12)c1ccccc1 (centres unmarked) [BHN-246, 3-[(1-phenylethoxy)methyl]-6-[4-(trifluoromethoxy)phenyl][1,2,4]triazolo[4,3-a]pyridine] | 85.8 | – |

| Structure (SMILES) | inhibition at 1 µM [%] | LateINa_1 uM (percent block of late INa) [%] |
| --- | --- | --- |
| CC(OC(F)(F)c1nnc2ccc(-c3ccc(OC(F)(F)F)cc3)cn12)c1ccc(Cl)cc1Cl (centres unmarked) [BHN-247, 3-{[1-(2,4-dichlorophenyl)ethoxy](difluoro)methyl}-6-[4-(trifluoromethoxy)phenyl][1,2,4]triazolo[4,3-a]pyridine] | 74.1 | – |
| OC1(COC(F)(F)c2nnc3ccc(-c4ccc(OC(F)(F)F)cc4)cn23)CCC1 [BHN-248, 1-[(difluoro{6-[4-(trifluoromethoxy)phenyl][1,2,4]triazolo[4,3-a]pyridin-3-yl}methoxy)methyl]cyclobutanol] | 50.2 | – |
| CC(OC(F)(F)c1cccnc1)c1nnc2ccc(-c3ccc(OC(F)(F)F)cc3)cn12 (centres unmarked) [BHN-249, 3-{1-[difluoro(pyridin-3-yl)methoxy]ethyl}-6-[4-(trifluoromethoxy)phenyl][1,2,4]triazolo[4,3-a]pyridine] | 22.7 | – |
| FC(F)(F)Oc1ccc(-c2ccc3nnc(COCc4ccc(Cl)cc4Cl)n3c2)cc1 [BHN-250, 3-{[(2,4-dichlorobenzyl)oxy]methyl}-6-[4-(trifluoromethoxy)phenyl][1,2,4]triazolo[4,3-a]pyridine] | 79.1 | – |
| Cc1ccc(COCc2nnc3ccc(-c4ccc(OC(F)(F)F)cc4)cn23)c(C)c1 [BHN-251, 3-{[(2,4-dimethylbenzyl)oxy]methyl}-6-[4-(trifluoromethoxy)phenyl][1,2,4]triazolo[4,3-a]pyridine] | 75.8 | – |
| Cc1ccc(COCc2nnc3ccc(-c4ccc(OC(F)(F)F)cc4)cn23)nc1 [BHN-252, 3-{[(5-methylpyridin-2-yl)methoxy]methyl}-6-[4-(trifluoromethoxy)phenyl][1,2,4]triazolo[4,3-a]pyridine] | 20.6 | – |
| Fc1cc(-c2ccc3nnc(C(F)F)n3n2)ccc1OC(F)(F)F [BHN-253, 3-(difluoromethyl)-6-[3-fluoro-4-(trifluoromethoxy)phenyl][1,2,4]triazolo[4,3-b]pyridazine] | 39.4 | – |
| N#CC1(c2ccc(-c3ccc4nnc(C(F)(F)F)n4c3)cc2)CCOCC1 [BHN-254, 4-{4-[3-(trifluoromethyl)[1,2,4]triazolo[4,3-a]pyridin-6-yl]phenyl}tetrahydro-2H-pyran-4-carbonitrile] | 24.6 | – |
| CC(OCc1ccccn1)c1nnc2ccc(-c3ccc(OC(F)(F)F)cc3)cn12 (centres unmarked) [BHN-255, 3-[1-(pyridin-2-ylmethoxy)ethyl]-6-[4-(trifluoromethoxy)phenyl][1,2,4]triazolo[4,3-a]pyridine] | 22.8 | – |
| CC(C)(C)OC(=O)N1CCC[C@H]1COC(F)(F)c1nnc2ccc(-c3ccc(OC(F)(F)F)cc3)cn12 [BHN-256, tert-butyl (2S)-2-[(difluoro{6-[4-(trifluoromethoxy)phenyl][1,2,4]triazolo[4,3-a]pyridin-3-yl}methoxy)methyl]pyrrolidine-1-carboxylate] | 62.6 | – |
| FC(F)(F)Oc1ccc(-c2ccc3nnc(COC(F)(F)c4cccnc4)n3c2)cc1 [BHN-257, 3-{[difluoro(pyridin-3-yl)methoxy]methyl}-6-[4-(trifluoromethoxy)phenyl][1,2,4]triazolo[4,3-a]pyridine] | 46.2 | – |
| FC(F)(F)Oc1ccc(-c2ccc3nnc(Oc4cccc(C(F)(F)F)c4)n3c2)cc1 [BHN-258] | – | 80.1084 |
| FC(F)(F)Oc1ccc(-c2ccc3nnc(C(F)(F)OCc4noc(C5CCC5)n4)n3c2)cc1 [BHN-259, 3-{[(5-cyclobutyl-1,2,4-oxadiazol-3-yl)methoxy](difluoro)methyl}-6-[4-(trifluoromethoxy)phenyl][1,2,4]triazolo[4,3-a]pyridine] | 71.6 | – |
| FC1(F)CCN(c2nnc3ccc(-c4ccc(OC(F)(F)F)cc4)cn23)CC1 [BHN-260, 3-(4,4-difluoropiperidin-1-yl)-6-[4-(trifluoromethoxy)phenyl][1,2,4]triazolo[4,3-a]pyridine] | 38.5 | – |
| N#Cc1cccc(COC(F)(F)c2nnc3ccc(-c4ccc(OC(F)(F)F)cc4)cn23)c1 [BHN-261, 3-[(difluoro{6-[4-(trifluoromethoxy)phenyl][1,2,4]triazolo[4,3-a]pyridin-3-yl}methoxy)methyl]benzonitrile] | 56.8 | – |
| COc1ccccc1SCC(C)COC(F)(F)c1nnc2ccc(-c3ccc(OC(F)(F)F)cc3)cn12 (centres unmarked) [BHN-262, 3-(difluoro{3-[(2-methoxyphenyl)sulfanyl]-2-methylpropoxy}methyl)-6-[4-(trifluoromethoxy)phenyl][1,2,4]triazolo[4,3-a]pyridine] | 47.8 | – |
| O=C(NCC(F)(F)c1nnc2ccc(-c3ccc(OC(F)(F)F)cc3)cn12)Nc1ccccc1 [BHN-263, 1-(2,2-difluoro-2-{6-[4-(trifluoromethoxy)phenyl][1,2,4]triazolo[4,3-a]pyridin-3-yl}ethyl)-3-phenylurea] | 22.6 | – |
